Key:
[1] = target: T1, Serine/threonine-protein kinase Nek2 (Homo sapiens) (UniProt P51955); assay: Inhibition of NEK2 (unknown origin) at 1 uM relative to control
T1 sequence (whole entry): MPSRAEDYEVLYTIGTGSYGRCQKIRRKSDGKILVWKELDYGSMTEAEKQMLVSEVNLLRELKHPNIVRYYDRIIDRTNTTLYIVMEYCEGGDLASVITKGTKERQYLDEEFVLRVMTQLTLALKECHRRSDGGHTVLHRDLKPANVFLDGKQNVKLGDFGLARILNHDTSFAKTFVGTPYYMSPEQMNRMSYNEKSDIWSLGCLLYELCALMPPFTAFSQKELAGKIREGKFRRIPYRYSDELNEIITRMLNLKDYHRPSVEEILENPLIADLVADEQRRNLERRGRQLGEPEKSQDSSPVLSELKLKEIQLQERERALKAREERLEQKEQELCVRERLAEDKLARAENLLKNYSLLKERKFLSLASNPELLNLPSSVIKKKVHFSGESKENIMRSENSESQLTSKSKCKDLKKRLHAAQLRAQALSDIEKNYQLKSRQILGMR

[2] = target: T2, Serine/threonine-protein kinase Nek3 (Homo sapiens) (UniProt P51956); assay: Inhibition of NEK3 (unknown origin) at 1 uM relative to control
T2 sequence (whole entry): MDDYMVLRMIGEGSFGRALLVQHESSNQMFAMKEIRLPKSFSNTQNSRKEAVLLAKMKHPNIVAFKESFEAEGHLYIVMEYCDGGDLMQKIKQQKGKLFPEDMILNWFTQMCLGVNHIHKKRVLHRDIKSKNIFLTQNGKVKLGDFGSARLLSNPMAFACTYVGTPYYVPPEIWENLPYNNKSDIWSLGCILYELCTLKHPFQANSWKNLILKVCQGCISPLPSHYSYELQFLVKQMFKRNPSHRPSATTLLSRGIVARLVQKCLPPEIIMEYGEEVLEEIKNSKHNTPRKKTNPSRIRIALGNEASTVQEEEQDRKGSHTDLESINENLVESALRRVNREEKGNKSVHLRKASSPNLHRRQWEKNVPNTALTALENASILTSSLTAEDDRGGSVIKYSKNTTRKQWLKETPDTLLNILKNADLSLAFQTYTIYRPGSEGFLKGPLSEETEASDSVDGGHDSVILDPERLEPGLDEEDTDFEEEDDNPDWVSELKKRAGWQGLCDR

[3] = target: T3, Serine/threonine-protein kinase Nek5 (Homo sapiens) (UniProt Q6P3R8); assay: Inhibition of NEK5 (unknown origin) at 1 uM relative to control
T3 sequence (whole entry): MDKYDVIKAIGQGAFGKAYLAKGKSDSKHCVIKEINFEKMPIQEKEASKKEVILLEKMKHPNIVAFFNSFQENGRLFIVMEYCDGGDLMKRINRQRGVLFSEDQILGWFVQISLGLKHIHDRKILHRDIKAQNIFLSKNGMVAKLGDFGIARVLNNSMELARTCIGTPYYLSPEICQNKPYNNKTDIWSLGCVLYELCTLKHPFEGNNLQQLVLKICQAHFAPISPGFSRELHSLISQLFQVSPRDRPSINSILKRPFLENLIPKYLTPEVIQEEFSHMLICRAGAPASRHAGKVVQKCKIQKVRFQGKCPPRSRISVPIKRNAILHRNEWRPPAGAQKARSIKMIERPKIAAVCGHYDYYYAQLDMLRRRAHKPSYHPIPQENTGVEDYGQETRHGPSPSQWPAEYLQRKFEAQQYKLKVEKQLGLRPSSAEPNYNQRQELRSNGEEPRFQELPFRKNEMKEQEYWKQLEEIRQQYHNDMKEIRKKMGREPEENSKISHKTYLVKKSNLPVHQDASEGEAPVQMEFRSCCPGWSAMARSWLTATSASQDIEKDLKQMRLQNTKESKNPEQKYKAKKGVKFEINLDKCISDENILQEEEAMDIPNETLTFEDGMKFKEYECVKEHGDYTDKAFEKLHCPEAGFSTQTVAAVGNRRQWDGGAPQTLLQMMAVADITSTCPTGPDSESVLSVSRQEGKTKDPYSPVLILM

[4] = target: Serine/threonine-protein kinase Nek6 (Homo sapiens) (UniProt Q9HC98); assay: Inhibition of NEK6 (unknown origin) at 1 uM relative to control
Chain of Serine/threonine-protein kinase Nek6 (Homo sapiens) (Q9HC98 whole entry): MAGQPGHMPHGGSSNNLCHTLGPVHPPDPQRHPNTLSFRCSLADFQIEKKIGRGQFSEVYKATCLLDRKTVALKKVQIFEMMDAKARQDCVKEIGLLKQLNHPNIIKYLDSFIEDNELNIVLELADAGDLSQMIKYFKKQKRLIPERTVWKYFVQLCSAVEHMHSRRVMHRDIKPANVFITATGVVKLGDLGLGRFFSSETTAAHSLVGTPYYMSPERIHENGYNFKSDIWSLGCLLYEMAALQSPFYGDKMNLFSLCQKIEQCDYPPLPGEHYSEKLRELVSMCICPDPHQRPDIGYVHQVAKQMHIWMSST

[5] = target: Serine/threonine-protein kinase Nek7 (Homo sapiens) (UniProt Q8TDX7); assay: Inhibition of NEK7 (unknown origin) at 1 uM relative to control
Chain of Serine/threonine-protein kinase Nek7 (Homo sapiens) (Q8TDX7 whole entry, looked up): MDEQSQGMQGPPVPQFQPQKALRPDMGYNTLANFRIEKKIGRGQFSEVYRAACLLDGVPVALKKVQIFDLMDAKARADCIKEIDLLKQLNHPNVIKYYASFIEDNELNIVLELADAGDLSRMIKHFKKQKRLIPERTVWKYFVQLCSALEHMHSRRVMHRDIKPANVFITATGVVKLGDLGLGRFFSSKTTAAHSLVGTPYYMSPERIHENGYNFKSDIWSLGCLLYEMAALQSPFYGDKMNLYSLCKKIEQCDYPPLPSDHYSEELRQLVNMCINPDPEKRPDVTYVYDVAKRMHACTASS

[6] = target: T4, Serine/threonine-protein kinase Nek10 (Homo sapiens) (UniProt Q6ZWH5); assay: Inhibition of NEK10 (unknown origin) at 1 uM relative to control
T4 sequence (whole entry): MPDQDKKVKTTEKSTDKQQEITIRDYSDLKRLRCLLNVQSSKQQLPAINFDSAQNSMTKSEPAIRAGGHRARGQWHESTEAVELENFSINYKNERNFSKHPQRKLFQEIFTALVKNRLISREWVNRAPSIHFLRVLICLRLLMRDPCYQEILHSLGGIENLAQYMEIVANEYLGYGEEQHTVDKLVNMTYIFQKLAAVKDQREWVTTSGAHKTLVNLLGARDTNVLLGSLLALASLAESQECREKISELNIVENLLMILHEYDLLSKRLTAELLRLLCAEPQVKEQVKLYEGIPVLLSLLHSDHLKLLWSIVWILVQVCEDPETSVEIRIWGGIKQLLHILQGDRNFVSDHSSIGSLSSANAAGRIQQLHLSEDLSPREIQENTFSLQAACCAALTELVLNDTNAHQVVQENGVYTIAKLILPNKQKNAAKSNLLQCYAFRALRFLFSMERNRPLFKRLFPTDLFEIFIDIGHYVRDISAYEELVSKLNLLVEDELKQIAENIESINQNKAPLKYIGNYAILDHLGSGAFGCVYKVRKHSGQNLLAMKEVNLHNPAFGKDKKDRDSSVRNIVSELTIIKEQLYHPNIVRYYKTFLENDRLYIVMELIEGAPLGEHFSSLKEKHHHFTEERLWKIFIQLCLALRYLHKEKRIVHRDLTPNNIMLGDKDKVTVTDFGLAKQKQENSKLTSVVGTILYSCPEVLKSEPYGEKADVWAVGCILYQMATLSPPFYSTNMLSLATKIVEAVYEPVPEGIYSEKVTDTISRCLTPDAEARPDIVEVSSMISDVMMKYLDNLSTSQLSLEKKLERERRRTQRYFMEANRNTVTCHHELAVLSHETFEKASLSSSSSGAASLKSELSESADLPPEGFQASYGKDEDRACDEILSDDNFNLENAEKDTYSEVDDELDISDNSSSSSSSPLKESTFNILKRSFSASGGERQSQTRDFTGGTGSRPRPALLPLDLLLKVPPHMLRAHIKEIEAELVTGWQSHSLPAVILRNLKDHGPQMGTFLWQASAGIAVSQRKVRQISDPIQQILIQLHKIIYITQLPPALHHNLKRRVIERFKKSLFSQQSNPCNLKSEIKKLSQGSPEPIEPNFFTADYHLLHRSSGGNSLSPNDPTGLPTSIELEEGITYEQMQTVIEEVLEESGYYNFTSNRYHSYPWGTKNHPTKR

[7] = target: T5, Serine/threonine-protein kinase Nek11 (Homo sapiens) (UniProt Q8NG66); assay: Inhibition of NEK11 (unknown origin) at 1 uM relative to control
T5 sequence (whole entry): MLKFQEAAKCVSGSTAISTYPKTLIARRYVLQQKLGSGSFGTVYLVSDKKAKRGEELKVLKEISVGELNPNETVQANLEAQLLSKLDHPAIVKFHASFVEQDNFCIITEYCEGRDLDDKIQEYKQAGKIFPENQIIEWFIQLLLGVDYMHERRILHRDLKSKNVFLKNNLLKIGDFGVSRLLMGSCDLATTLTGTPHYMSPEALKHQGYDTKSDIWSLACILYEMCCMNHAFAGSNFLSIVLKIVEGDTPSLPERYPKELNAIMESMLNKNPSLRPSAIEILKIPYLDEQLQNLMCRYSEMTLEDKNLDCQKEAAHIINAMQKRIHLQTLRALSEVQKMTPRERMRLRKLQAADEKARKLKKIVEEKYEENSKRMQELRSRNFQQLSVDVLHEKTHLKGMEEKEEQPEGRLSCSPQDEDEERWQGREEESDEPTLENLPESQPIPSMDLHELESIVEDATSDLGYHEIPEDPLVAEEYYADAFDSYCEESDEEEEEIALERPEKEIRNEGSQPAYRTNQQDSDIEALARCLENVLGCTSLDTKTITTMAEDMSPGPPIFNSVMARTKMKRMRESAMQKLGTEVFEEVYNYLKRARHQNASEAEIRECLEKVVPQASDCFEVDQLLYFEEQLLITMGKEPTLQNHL

[8] = target: Angiopoietin-1 receptor (Homo sapiens) (UniProt Q02763); assay: Inhibition of TIE2 (unknown origin) at 1 uM relative to control
Chain of Angiopoietin-1 receptor (Homo sapiens) (Q02763 whole entry): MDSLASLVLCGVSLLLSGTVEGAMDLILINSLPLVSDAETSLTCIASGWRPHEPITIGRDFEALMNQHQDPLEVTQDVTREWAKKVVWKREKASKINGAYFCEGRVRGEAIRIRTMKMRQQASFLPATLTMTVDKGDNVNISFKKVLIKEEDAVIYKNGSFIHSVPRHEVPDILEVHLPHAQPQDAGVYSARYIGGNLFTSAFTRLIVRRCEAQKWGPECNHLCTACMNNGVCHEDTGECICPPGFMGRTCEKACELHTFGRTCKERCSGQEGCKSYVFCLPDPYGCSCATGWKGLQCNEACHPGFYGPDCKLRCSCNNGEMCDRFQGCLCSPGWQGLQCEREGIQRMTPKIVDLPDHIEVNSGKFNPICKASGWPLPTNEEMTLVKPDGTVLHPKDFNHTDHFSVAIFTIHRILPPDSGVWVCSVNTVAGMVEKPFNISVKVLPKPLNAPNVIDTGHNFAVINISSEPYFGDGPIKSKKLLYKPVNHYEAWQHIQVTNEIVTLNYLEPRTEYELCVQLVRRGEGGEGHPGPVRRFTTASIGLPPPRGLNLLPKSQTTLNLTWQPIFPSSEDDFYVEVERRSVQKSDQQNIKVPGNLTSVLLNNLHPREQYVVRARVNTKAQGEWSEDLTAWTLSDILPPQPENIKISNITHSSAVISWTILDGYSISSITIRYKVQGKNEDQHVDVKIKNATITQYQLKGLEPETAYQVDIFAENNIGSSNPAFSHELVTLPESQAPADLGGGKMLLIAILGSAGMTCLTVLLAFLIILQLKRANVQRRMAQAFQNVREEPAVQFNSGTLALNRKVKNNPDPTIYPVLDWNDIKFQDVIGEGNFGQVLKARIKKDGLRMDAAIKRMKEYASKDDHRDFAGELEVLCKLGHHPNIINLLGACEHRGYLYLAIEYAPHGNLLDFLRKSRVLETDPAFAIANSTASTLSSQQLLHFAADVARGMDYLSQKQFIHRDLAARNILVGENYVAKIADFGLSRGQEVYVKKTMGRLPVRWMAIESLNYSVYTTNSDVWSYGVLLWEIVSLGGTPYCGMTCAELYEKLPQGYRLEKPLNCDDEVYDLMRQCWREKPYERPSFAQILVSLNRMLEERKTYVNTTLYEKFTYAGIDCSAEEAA

[9] = target: T6, Cytoplasmic tyrosine-protein kinase BMX (Homo sapiens) (UniProt P51813); assay: Inhibition of BMX (unknown origin) at 1 uM relative to control
T6 sequence (whole entry): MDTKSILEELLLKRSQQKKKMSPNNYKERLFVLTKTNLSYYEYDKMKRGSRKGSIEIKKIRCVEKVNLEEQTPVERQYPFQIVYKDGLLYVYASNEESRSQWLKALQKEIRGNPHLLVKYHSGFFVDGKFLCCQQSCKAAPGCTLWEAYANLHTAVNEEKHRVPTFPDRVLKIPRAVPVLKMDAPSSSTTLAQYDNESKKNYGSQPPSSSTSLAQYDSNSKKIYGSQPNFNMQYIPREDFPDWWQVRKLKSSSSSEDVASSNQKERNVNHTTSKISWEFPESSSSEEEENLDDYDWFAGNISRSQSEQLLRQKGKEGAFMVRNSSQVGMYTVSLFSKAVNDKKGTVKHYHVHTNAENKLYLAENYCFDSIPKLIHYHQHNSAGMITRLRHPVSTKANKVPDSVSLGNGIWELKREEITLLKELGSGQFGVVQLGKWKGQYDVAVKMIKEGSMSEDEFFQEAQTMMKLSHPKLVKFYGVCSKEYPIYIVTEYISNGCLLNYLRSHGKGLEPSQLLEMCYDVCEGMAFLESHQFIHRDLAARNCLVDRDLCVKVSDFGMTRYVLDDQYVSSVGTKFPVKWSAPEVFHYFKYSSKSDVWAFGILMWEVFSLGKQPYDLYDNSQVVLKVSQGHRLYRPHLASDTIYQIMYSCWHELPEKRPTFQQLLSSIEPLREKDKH

[10] = target: Fibroblast growth factor receptor 3 (Homo sapiens) (UniProt P22607); assay: Inhibition of FGFR3 (unknown origin) at 1 uM relative to control
Chain of Fibroblast growth factor receptor 3 (Homo sapiens) (P22607 23-806 limits assumed): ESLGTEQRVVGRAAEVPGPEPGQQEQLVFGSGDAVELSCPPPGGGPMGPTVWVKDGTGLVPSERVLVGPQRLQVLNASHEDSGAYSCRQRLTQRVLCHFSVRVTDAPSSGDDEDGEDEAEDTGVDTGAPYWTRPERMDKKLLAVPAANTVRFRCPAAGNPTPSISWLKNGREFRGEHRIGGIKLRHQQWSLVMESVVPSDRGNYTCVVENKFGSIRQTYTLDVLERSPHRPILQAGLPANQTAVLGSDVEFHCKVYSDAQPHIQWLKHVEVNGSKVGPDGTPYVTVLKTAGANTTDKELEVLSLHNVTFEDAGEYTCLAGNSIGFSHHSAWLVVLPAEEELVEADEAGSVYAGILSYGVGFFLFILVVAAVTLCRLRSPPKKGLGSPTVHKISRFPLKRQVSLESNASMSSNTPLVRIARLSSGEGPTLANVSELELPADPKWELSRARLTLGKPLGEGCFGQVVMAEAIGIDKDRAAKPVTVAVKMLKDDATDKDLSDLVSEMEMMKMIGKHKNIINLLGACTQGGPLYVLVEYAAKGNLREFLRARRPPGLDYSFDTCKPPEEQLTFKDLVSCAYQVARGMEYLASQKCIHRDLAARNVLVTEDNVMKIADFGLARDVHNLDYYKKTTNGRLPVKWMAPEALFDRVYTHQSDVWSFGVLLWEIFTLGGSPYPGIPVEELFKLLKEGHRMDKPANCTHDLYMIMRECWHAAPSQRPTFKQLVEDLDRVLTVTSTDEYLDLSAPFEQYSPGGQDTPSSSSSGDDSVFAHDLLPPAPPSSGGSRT

[11] = target: T7, Mitogen-activated protein kinase kinase kinase 19 (Homo sapiens) (UniProt Q56UN5); assay: Inhibition of YSK4 (unknown origin) at 1 uM relative to control
T7 sequence (whole entry): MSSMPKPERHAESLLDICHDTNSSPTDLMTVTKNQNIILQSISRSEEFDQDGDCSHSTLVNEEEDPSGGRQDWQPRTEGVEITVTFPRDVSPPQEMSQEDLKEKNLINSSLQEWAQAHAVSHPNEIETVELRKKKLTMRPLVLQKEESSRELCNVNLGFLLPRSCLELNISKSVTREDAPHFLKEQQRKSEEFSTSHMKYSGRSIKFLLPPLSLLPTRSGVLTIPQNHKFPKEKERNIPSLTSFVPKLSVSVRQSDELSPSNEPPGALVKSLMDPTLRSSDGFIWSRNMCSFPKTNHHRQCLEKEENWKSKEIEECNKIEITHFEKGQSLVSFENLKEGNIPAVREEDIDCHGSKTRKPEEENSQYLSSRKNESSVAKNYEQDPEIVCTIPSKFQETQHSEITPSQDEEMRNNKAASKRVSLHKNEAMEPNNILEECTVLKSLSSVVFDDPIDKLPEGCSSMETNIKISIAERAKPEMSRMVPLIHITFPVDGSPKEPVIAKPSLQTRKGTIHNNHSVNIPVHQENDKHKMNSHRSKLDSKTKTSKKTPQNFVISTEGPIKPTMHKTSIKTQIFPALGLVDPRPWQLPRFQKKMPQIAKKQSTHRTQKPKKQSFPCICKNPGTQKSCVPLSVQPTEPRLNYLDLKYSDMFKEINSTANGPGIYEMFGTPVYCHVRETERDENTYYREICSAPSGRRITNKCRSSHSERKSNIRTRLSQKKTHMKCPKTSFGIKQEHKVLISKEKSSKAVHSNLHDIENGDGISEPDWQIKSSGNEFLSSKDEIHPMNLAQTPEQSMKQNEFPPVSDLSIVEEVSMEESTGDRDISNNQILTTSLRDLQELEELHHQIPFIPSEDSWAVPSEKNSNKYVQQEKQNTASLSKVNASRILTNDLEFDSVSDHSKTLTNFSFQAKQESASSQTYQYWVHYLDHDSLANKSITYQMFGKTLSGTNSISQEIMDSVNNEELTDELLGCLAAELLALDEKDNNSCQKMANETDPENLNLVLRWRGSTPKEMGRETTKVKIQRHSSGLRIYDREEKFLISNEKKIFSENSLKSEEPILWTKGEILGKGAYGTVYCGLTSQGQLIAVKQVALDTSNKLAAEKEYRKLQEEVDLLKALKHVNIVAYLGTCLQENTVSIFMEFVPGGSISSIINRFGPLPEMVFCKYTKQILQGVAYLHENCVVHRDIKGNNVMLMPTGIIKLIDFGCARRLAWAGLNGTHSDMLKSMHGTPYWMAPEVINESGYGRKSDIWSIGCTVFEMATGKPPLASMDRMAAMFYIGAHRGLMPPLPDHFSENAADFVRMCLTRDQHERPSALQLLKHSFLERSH

SMILES	inhibition [1]	inhibition [2]	inhibition [3]	inhibition [4]	inhibition [5]	inhibition [6]	inhibition [7]	inhibition [8]	inhibition [9]	inhibition [10]	inhibition [11]
CC(C)(C)c1nc(-c2cccc(NS(=O)(=O)c3c(F)cccc3F)c2F)c(-c2ccnc(N)n2)s1	7%	100%	75%	0.3%	1.6%	56%	0.2%	–	–	–	–
CC[C@@H]1C(=O)N(C)c2cnc(Nc3ccc(C(=O)NC4CCN(C)CC4)cc3OC)nc2N1C1CCCC1	72%	–	–	–	–	–	–	–	–	–	–

The next lines start with the values.

inhibition [1]	inhibition [2]	inhibition [3]	inhibition [4]	inhibition [5]	inhibition [6]	inhibition [7]	inhibition [8]	inhibition [9]	inhibition [10]	inhibition [11]	SMILES
–	–	–	–	–	48%	–	1%	15%	12%	94.4%	Cn1cc(-c2cccc3c(N)c(C(N)=O)nnc23)cn1
–	–	–	–	–	86%	–	31%	83%	0%	71%	Cc1cc2cn[nH]c2cc1-c1cccc2c(N)c(C(N)=O)nnc12
–	–	–	–	–	85%	–	98.7%	90.1%	90%	88%	NC(=O)c1nnc2ccccc2c1N

Reference: ChEMBL document CHEMBL5252509, “In depth analysis of kinase cross screening data to identify chemical starting points for inhibition of the Nek family of kinases” (Medchemcomm, 2018)
